In patent US8633200B2, “Inhibitors of human immunodeficiency virus replication” (priority 2010, dated 2014) one finds EC50 data, which are given here for 56 compounds.

Structures can show the parent of a compound that is named as a salt.

The first assay relates to recombinant NL-Rluc virus (NL4-3 with Renilla Luciferase gene) in MT-2 cells. Kind of assay: Inhibition of HIV replication (NL-Rluc luciferase reporter virus, MT-2 cells). In kind it is cell-based, human immunodeficiency virus (HIV). As to conditions: NL43, 120 h, read-out: Activity.
In the case of `Cc1ccc(-c2c(C(OC(C)(C)C)C(=O)O)c(C)nc3cc(-c4ccccc4)nn23)cc1C` (stereo not shown) [Example 1, 2-tert-Butoxy-2-(7-(3,4-dimethylphenyl)-5-methyl-2-phenylpyrazolo[1,5-a]pyrimidin-6-yl)acetic acid, TFA salt], the EC50 was over 1 µM.

Regarding `Cc1nc2cc(-c3ccccc3)nn2c(-c2ccc3c(c2)CCC3)c1C(OC(C)(C)C)C(=O)O` (stereo not shown) [Example 2], the EC50 was over 1 µM.

As for `Cc1nc2cc(-c3ccccc3)nn2c(-c2ccc3c(c2)CCCO3)c1C(OC(C)(C)C)C(=O)O` (stereo not shown) [Example 3], the EC50 was 0.1 to 1 µM.

Take `Cc1nc2cc(-c3ccccc3)nn2c(-c2ccc(Cl)cc2)c1C(OC(C)(C)C)C(=O)O` (stereo not shown) [Example 4]: the EC50 is over 1 µM.

Take `Cc1nc2cc(-c3ccccc3)nn2c(-c2ccc3ccccc3c2)c1C(OC(C)(C)C)C(=O)O` (stereo not shown) [Example 5]: the EC50 was over 1 µM.

As for `Cc1nc2cc(-c3ccccc3)nn2c(-c2cccnc2)c1C(OC(C)(C)C)C(=O)O` (stereo not shown) [Example 6], the EC50 is over 1 µM.

Take `Cc1nc2cc(-c3ccccc3)nn2c(-c2ccccc2OC(F)(F)F)c1C(OC(C)(C)C)C(=O)O` (stereo not shown) [Example 7]: the EC50 is over 1 µM.

Turning to `COc1cccc(-c2c(C(OC(C)(C)C)C(=O)O)c(C)nc3cc(-c4ccccc4)nn23)c1` (stereo not shown) [Example 8], the EC50 is over 1 µM.

For `COc1ccccc1-c1c(C(OC(C)(C)C)C(=O)O)c(C)nc2cc(-c3ccccc3)nn12` (stereo not shown) [Example 9], the EC50 was over 1 µM.

As to `Cc1nc2cc(-c3ccccc3)nn2c(-c2ccccc2)c1C(OC(C)(C)C)C(=O)O` (stereo not shown) [Example 10], the EC50 is over 1 µM.

For the compound `CC(=O)Nc1ccc(-c2c(C(OC(C)(C)C)C(=O)O)c(C)nc3cc(-c4ccccc4)nn23)cc1` (stereo not shown) [Example 11], the EC50 was over 1 µM.

Consider `COc1ccc(-c2c(C(OC(C)(C)C)C(=O)O)c(C)nc3cc(-c4ccccc4)nn23)cn1` (stereo not shown) [Example 12], for which the EC50 was over 1 µM.

In the case of `Cc1nc2cc(-c3ccccc3)nn2c(-c2ccc(C#N)cc2)c1C(OC(C)(C)C)C(=O)O` (stereo not shown) [Example 13], the EC50 is over 1 µM.

As for `Cc1ccccc1-c1c(C(OC(C)(C)C)C(=O)O)c(C)nc2cc(-c3ccccc3)nn12` (stereo not shown) [Example 14], the EC50 is over 1 µM.

Consider `Cc1nc2cc(-c3ccccc3)nn2c(-c2ccc(C(F)(F)F)cc2)c1C(OC(C)(C)C)C(=O)O` (stereo not shown) [Example 15], for which the EC50 was over 1 µM.

Regarding `Cc1nc2cc(-c3ccccc3)nn2c(-c2cccc(Cl)c2)c1C(OC(C)(C)C)C(=O)O` (stereo not shown) [Example 16], the EC50 is over 1 µM.

As to `Cc1cccc(-c2c(C(OC(C)(C)C)C(=O)O)c(C)nc3cc(-c4ccccc4)nn23)c1` (stereo not shown) [Example 17], the EC50 was over 1 µM.

As for `Cc1nc2cc(-c3ccccc3)nn2c(-c2ccc(F)cc2F)c1C(OC(C)(C)C)C(=O)O` (stereo not shown) [Example 18], the EC50 is over 1 µM.

With `Cc1nc2cc(-c3ccccc3)nn2c(-c2ccc3c(c2)OCCO3)c1C(OC(C)(C)C)C(=O)O` (stereo not shown) [Example 19], the EC50 is over 1 µM.

Regarding `Cc1nc2cc(-c3ccccc3)nn2c(-c2ccc(O)cc2)c1C(OC(C)(C)C)C(=O)O` (stereo not shown) [Example 20], the EC50 is over 1 µM.

For the compound `Cc1nc2cc(-c3ccccc3)nn2c(-c2ccncc2)c1C(OC(C)(C)C)C(=O)O` (stereo not shown) [Example 21], the EC50 was over 1 µM.

`COc1ccc(-c2c(C(OC(C)(C)C)C(=O)O)c(C)nc3cc(-c4ccccc4)nn23)cc1OC` (stereo not shown) [Example 22]: the EC50 is over 1 µM.

Turning to `Cc1nc2cc(-c3ccccc3)nn2c(-c2ccc(F)cc2)c1C(OC(C)(C)C)C(=O)O` (stereo not shown) [Example 23], the EC50 is over 1 µM.

For the compound `Cc1nc2cc(-c3ccccc3)nn2c(-c2ccc(Oc3ccccc3)cc2)c1C(OC(C)(C)C)C(=O)O` (stereo not shown) [Example 24], the EC50 is over 1 µM.

For `Cc1nc2cc(-c3ccccc3)nn2c(-c2ccc(OC(F)(F)F)cc2)c1C(OC(C)(C)C)C(=O)O` (stereo not shown) [Example 25], the EC50 is over 1 µM.

As for `Cc1nc2cc(-c3ccccc3)nn2c(-c2ccc3c(c2)CCO3)c1C(OC(C)(C)C)C(=O)O` (stereo not shown) [Example 26], the EC50 lay in the range of 0.1 to 1 µM.

In the case of `Cc1nc2cc(-c3ccccc3)nn2c(-c2ccc(Cl)cc2F)c1C(OC(C)(C)C)C(=O)O` (stereo not shown) [Example 27], the EC50 is over 1 µM.

On to `Cc1nc2cc(-c3ccccc3)nn2c(-c2ccc3occc3c2)c1C(OC(C)(C)C)C(=O)O` (stereo not shown) [Example 28], for which the EC50 was over 1 µM.

Turning to `COc1ccc(-c2c(C(OC(C)(C)C)C(=O)O)c(C)nc3cc(-c4ccccc4)nn23)cc1C(F)(F)F` (stereo not shown) [Example 29], the EC50 is over 1 µM.

Take `Cc1nc2cc(-c3ccccc3)nn2c(-c2ccc3c(c2)OCO3)c1C(OC(C)(C)C)C(=O)O` (stereo not shown) [Example 30]: the EC50 is over 1 µM.

`Cc1nc2cc(-c3ccccc3)nn2c(-c2ccc(OCc3ccccc3)cc2)c1C(OC(C)(C)C)C(=O)O` (stereo not shown) [Example 31]: the EC50 was over 1 µM.

For `COc1ccc(-c2c(C(OC(C)(C)C)C(=O)O)c(C)nc3cc(-c4ccccc4)nn23)cc1` (stereo not shown) [Example 32], the EC50 was over 1 µM.

As to `COc1ccc(-c2c(C(OC(C)(C)C)C(=O)O)c(C)nc3cc(-c4ccccc4)nn23)cc1F` (stereo not shown) [Example 33], the EC50 is over 1 µM.

In the case of `Cc1nc2cc(-c3ccccc3)nn2c(-c2ccc(OC(C)C)cc2)c1C(OC(C)(C)C)C(=O)O` (stereo not shown) [Example 34], the EC50 is over 1 µM.

As to `COc1cc(F)c(-c2c(C(OC(C)(C)C)C(=O)O)c(C)nc3cc(-c4ccccc4)nn23)cc1F` (stereo not shown) [Example 35], the EC50 was over 1 µM.

In the case of `Cc1nc2cc(-c3ccccc3)nn2c(-c2ccc3c(ccn3C)c2)c1C(OC(C)(C)C)C(=O)O` (stereo not shown) [Example 36], the EC50 fell in the range of 0.1 to 1 µM.

As for `Cc1nc2cc(-c3ccccc3)nn2c(-c2ccc3c4c(ccnc24)CCO3)c1C(OC(C)(C)C)C(=O)O` (stereo not shown) [Example 37], the EC50 was over 1 µM.

`Cc1nc2cc(-c3ccccc3)nn2c(-c2cc(F)c3c(c2C)CCCO3)c1C(OC(C)(C)C)C(=O)O` (stereo not shown) [Example 38]: the EC50 was in the range of 0.1 to 1 µM.

Regarding `Cc1nc2cc(-c3ccccc3)nn2c(-c2cc(F)c3c(c2C)CCCO3)c1[C@H](OC(C)(C)C)C(=O)O` [Example 39, (2S)-2-tert-butoxy-2-(7-(8-fluoro-5-methylchroman-6-yl)-5-methyl-2-phenylpyrazolo[1,5-a]pyrimidin-6-yl)acetic acid], the EC50 is under 0.1 µM.

Consider `Cc1nc2cc(-c3ccccc3)nn2c(-c2cc(F)c3c(c2C)CCCO3)c1[C@@H](OC(C)(C)C)C(=O)O` [Example 40, (2R)-2-tert-butoxy-2-(7-(8-fluoro-5-methylchroman-6-yl)-5-methyl-2-phenylpyrazolo[1,5-a]pyrimidin-6-yl)acetic acid], for which the EC50 was over 1 µM.

With `Cc1ccc(-c2c(C(OC(C)(C)C)C(=O)O)c(C)nc3cc(-c4ccccc4)nn23)cc1` (stereo not shown) [Example 41, 2-tert-Butoxy-2-(5-methyl-2-phenyl-7-p-tolylpyrazolo[1,5-a]pyrimidin-6-yl)acetic acid, TFA salt], the EC50 lay within 0.1 to 1 µM.

As for `Cc1ccc(-c2c(C(OC(C)(C)C)C(=O)O)c(C)nc3ccnn23)cc1` (stereo not shown) [Example 42, 2-tert-Butoxy-2-(5-methyl-7-p-tolylpyrazolo[1,5-a]pyrimidin-6-yl)acetic acid, TFA salt], the EC50 was over 1 µM.

Consider `Cc1nc2cc(-c3ccccc3)nn2c(C)c1C(OC(C)(C)C)C(=O)O` (stereo not shown) [Example 43, 2-tert-Butoxy-2-(5,7-dimethyl-2-phenylpyrazolo[1,5-a]pyrimidin-6-yl)acetic acid, TFA salt], for which the EC50 is over 1 µM.

In the case of `Cc1nc2c(-c3ccccc3)cnn2c(-c2cc(F)c3c(c2C)CCCO3)c1C(OC(C)(C)C)C(=O)O` (stereo not shown) [Example 44, 2-tert-Butoxy-2-(7-(8-fluoro-5-methylchroman-6-yl)-5-methyl-3-phenylpyrazolo[1,5-a]pyrimidin-6-yl)acetic acid, TFA salt], the EC50 was over 1 µM.

As for `Cc1nc2c(-c3ccccc3)cnn2c(-c2ccc3c(c2)CCCO3)c1C(OC(C)(C)C)C(=O)O` (stereo not shown) [Example 45, 2-tert-Butoxy-2-(7-(chroman-6-yl)-5-methyl-3-phenylpyrazolo[1,5-a]pyrimidin-6-yl)acetic acid, TFA salt], the EC50 was 0.1 to 1 µM.

As for `Cc1ccc(-c2cc3nc(C)c(C(OC(C)(C)C)C(=O)O)c(-c4cc(F)c5c(c4C)CCCO5)n3n2)cc1` (stereo not shown) [Example 46, 2-tert-Butoxy-2-(7-(8-fluoro-5-methylchroman-6-yl)-5-methyl-2-p-tolylpyrazolo[1,5-a]pyrimidin-6-yl)acetic acid, TFA salt], the EC50 is under 0.1 µM.

In the case of `Cc1ccc(-c2cc3nc(C)c(C(OC(C)(C)C)C(=O)O)c(-c4ccc5c(c4)CCCO5)n3n2)cc1` (stereo not shown) [Example 47], the EC50 is under 0.1 µM.

For the compound `Cc1nc2cc(-c3ccccc3)nn2c(-c2cc3ccccc3n2C)c1C(OC(C)(C)C)C(=O)O` (stereo not shown) [Example 48], the EC50 was over 1 µM.

As for `CCC(C)c1ccc(-c2c(C(OC(C)(C)C)C(=O)O)c(C)nc3cc(-c4ccccc4)nn23)cc1` (stereo not shown) [Example 49], the EC50 is over 1 µM.

In the case of `Cc1nc2cc(-c3ccccc3)nn2c(-c2ccc3ncccc3c2)c1C(OC(C)(C)C)C(=O)O` (stereo not shown) [Example 50], the EC50 was over 1 µM.

In the case of `Cc1nc2cc(-c3ccccc3)nn2c(-c2ccc3cc[nH]c3c2)c1C(OC(C)(C)C)C(=O)O` (stereo not shown) [Example 51], the EC50 was over 1 µM.

For `COc1ccc(-c2c(C(OC(C)(C)C)C(=O)O)c(C)nc3cc(-c4ccccc4)nn23)c(Cl)c1` (stereo not shown) [Example 52], the EC50 is over 1 µM.

As for `Cc1ccc(-c2c(C(OC(C)(C)C)C(=O)O)c(C)nc3cc(-c4ccccc4)nn23)c(Cl)c1` (stereo not shown) [Example 53], the EC50 was in the range of 0.1 to 1 µM.

In the case of `Cc1ccc(-c2c(C(OC(C)(C)C)C(=O)O)c(C)nc3cc(-c4ccccc4)nn23)c(F)c1` (stereo not shown) [Example 54], the EC50 is 0.1 to 1 µM.

As for `Cc1nc2cc(-c3ccccc3)nn2c(-c2ccccc2Cl)c1C(OC(C)(C)C)C(=O)O` (stereo not shown) [Example 55], the EC50 is over 1 µM.

For `CCc1ccc(-c2c(C(OC(C)(C)C)C(=O)O)c(C)nc3cc(-c4ccccc4)nn23)cc1` (stereo not shown) [Example 56], the EC50 was over 1 µM.

The assay is the same for the next values; noted with them: NL43, 120 h, read-out: EC50 μM.
Turning to `Cc1ccc(-c2c(C(OC(C)(C)C)C(=O)O)c(C)nc3cc(-c4ccccc4)nn23)cc1` (stereo not shown) [Example 41, 2-tert-Butoxy-2-(5-methyl-2-phenyl-7-p-tolylpyrazolo[1,5-a]pyrimidin-6-yl)acetic acid, TFA salt], the EC50 turned out to be 0.6 µM.

For the compound `Cc1ccc(-c2c(C(OC(C)(C)C)C(=O)O)c(C)nc3ccnn23)cc1` (stereo not shown) [Example 42, 2-tert-Butoxy-2-(5-methyl-7-p-tolylpyrazolo[1,5-a]pyrimidin-6-yl)acetic acid, TFA salt], the EC50 is 4.5 µM.

On to `Cc1nc2cc(-c3ccccc3)nn2c(C)c1C(OC(C)(C)C)C(=O)O` (stereo not shown) [Example 43, 2-tert-Butoxy-2-(5,7-dimethyl-2-phenylpyrazolo[1,5-a]pyrimidin-6-yl)acetic acid, TFA salt], for which the EC50 was 40 µM.

As to `Cc1nc2c(-c3ccccc3)cnn2c(-c2cc(F)c3c(c2C)CCCO3)c1C(OC(C)(C)C)C(=O)O` (stereo not shown) [Example 44, 2-tert-Butoxy-2-(7-(8-fluoro-5-methylchroman-6-yl)-5-methyl-3-phenylpyrazolo[1,5-a]pyrimidin-6-yl)acetic acid, TFA salt], the EC50 came out at 3 µM.

As to `Cc1nc2c(-c3ccccc3)cnn2c(-c2ccc3c(c2)CCCO3)c1C(OC(C)(C)C)C(=O)O` (stereo not shown) [Example 45, 2-tert-Butoxy-2-(7-(chroman-6-yl)-5-methyl-3-phenylpyrazolo[1,5-a]pyrimidin-6-yl)acetic acid, TFA salt], the EC50 stood at 0.24 µM.

Consider `Cc1ccc(-c2cc3nc(C)c(C(OC(C)(C)C)C(=O)O)c(-c4cc(F)c5c(c4C)CCCO5)n3n2)cc1` (stereo not shown) [Example 46, 2-tert-Butoxy-2-(7-(8-fluoro-5-methylchroman-6-yl)-5-methyl-2-p-tolylpyrazolo[1,5-a]pyrimidin-6-yl)acetic acid, TFA salt], for which the EC50 was 0.09 µM.

For `Cc1ccc(-c2cc3nc(C)c(C(OC(C)(C)C)C(=O)O)c(-c4ccc5c(c4)CCCO5)n3n2)cc1` (stereo not shown) [Example 47], the EC50 stood at 0.08 µM.

As for `Cc1nc2cc(-c3ccccc3)nn2c(-c2ccc3ncccc3c2)c1C(OC(C)(C)C)C(=O)O` (stereo not shown) [Example 50], the EC50 stood at 2.4 µM.
